Series [1] addresses T1, Cannabinoid receptor 2 (Homo sapiens, UniProt P34972). The experiment in a line: Agonist activity at human CB2 receptor expressed in CHO cells assessed as inhibition of forskolin-induced cAMP release after 45 mins. The series is classed as functional, cell-based.
Series [2] has as its target T2, Cannabinoid receptor 1 (Homo sapiens, UniProt P21554). Description: Displacement of [3H]-CP55940 from human recombinant CB1 receptor after 60 mins. On the technique in general: Loss of bound radioactivity is the signal in a displacement assay; it reports binding, not function.
Series [3] concerns the target T1, Cannabinoid receptor 2. The experiment in a line: Displacement of [3H]-CP55940 from human recombinant CB2 receptor after 60 mins.
Series [4] concerns the target T2, Cannabinoid receptor 1. Description: Agonist activity at human CB1 receptor expressed in CHO cells assessed as inhibition of forskolin-induced cAMP release after 25 mins. The format is functional, cell-based.
Series [5] concerns Mus musculus. Description: Neurotoxicity in ICR mouse assessed as psychoactivity at 0.1 to 1 mg/kg, iv. Conditions: in vivo. The format is toxicity, organism-based. The arrangement: dose 0.1-1 mg/kg, route intravenous.
The species entered for series [6] is Mus musculus. Description: animal or person. The note with it: ICR, po, 0.5 h, read-out: INH.
The subject of series [7] is Mus musculus. The experiment in a line: Antipruritic activity in ICR mouse assessed as inhibition of compound 48/80-induced scratching at 1 mg/kg, po measured after 30 mins. The format is functional. The note with it: 0.5 h.
In series [8] the test system is Mus musculus. Description: Antipruritic activity in ICR mouse assessed as inhibition of compound 48/80-induced scratching at 3 mg/kg, po measured after 30 mins. The series is classed as functional. The note with it: 0.5 h.
The subject of series [9] is Mus musculus. Description: Antipruritic activity in ICR mouse assessed as inhibition of compound 48/80-induced scratching at 10 mg/kg, po measured after 30 mins. The series is classed as functional. The note with it: 0.5 h.
The nature of series [10]: Clearance in rat at 3 mg/kg, iv. The format is ADME, organism-based. Conditions: in vivo. The arrangement: dose 3 mg/kg, route intravenous.
Series [11] in a line: Clearance in beagle dog at 3 mg/kg, iv. The arrangement: dose 3 mg/kg, route intravenous. The note with it: in vivo. The format is ADME, organism-based, Canis lupus familiaris.
The nature of series [12]: Clearance in cynomolgus monkey at 3 mg/kg, iv. The series is classed as ADME, organism-based, Macaca fascicularis. The arrangement: dose 3 mg/kg, route intravenous. The note with it: in vivo.
Series [13] can be described thus: Half life in rat at 10 mg/kg, po. The arrangement: dose 10 mg/kg, route oral. The format is ADME, organism-based. The note with it: in vivo.
Series [14] in a line: Half life in beagle dog at 10 mg/kg, po. The format is ADME, organism-based, Canis lupus familiaris. The arrangement: dose 10 mg/kg, route oral. The note with it: in vivo.
The nature of series [15]: Half life in cynomolgus monkey at 10 mg/kg, po. The series is classed as ADME, organism-based, Macaca fascicularis. The arrangement: dose 10 mg/kg, route oral. Conditions: in vivo.
Series [16] can be described thus: Volume of distribution at steady state in rat at 3 mg/kg, iv. The series is classed as ADME, organism-based. The arrangement: dose 3 mg/kg, route intravenous. Conditions: in vivo, read-out: Vdss.
Series [17] is described as follows: Volume of distribution at steady state in beagle dog at 3 mg/kg, iv. The note with it: in vivo, read-out: Vdss. The series is classed as ADME, organism-based, Canis lupus familiaris. The arrangement: dose 3 mg/kg, route intravenous.
Series [18] in a line: Volume of distribution at steady state in cynomolgus monkey at 3 mg/kg, iv. The arrangement: dose 3 mg/kg, route intravenous. The format is ADME, organism-based, Macaca fascicularis. Conditions: in vivo, read-out: Vdss.
Series [19] can be described thus: Oral bioavailability in rat at 10 mg/kg. The note with it: in vivo. The series is classed as ADME, organism-based.
Series [20] in a line: Oral bioavailability in beagle dog at 10 mg/kg. The format is ADME, organism-based, Canis lupus familiaris. Conditions: in vivo.
Series [21] in a line: Oral bioavailability in cynomolgus monkey at 10 mg/kg. The series is classed as ADME, organism-based, Macaca fascicularis. The note with it: in vivo.

The term IC50 denotes the concentration at which inhibition is half-maximal. By Ki is commonly meant the equilibrium dissociation constant of an inhibitor or competing ligand from its target. Broadly, the clearance is the volume of plasma or blood freed of the substance per unit of time. In general, half-life refers to the time in which the quantity being followed falls by half. In general, bioavailability refers to dose-corrected exposure relative to a reference, in per cent.

T2 sequence (P21554 whole entry): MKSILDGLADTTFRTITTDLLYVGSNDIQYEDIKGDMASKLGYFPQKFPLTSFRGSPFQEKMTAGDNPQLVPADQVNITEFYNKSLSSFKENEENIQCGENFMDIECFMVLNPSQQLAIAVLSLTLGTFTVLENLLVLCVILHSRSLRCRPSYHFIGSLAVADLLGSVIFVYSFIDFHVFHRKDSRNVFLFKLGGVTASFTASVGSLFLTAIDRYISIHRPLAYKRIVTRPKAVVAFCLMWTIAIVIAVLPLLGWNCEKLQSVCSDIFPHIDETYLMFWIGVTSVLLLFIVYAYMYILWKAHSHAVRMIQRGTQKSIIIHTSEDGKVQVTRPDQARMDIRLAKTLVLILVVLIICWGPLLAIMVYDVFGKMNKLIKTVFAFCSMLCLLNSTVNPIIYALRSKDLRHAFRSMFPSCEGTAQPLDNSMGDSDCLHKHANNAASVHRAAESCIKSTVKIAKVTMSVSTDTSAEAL
T1 sequence (P34972 whole entry): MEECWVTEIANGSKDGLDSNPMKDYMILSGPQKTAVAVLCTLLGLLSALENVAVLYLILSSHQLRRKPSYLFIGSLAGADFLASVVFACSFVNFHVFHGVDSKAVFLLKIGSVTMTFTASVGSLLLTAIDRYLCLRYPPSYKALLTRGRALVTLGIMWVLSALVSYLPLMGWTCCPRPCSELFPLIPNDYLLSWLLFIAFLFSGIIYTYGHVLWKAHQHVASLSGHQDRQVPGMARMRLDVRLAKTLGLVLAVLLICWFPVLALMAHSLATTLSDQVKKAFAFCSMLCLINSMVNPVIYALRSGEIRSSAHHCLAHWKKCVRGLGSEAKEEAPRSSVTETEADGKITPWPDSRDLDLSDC

In the case of `O=C(NC1(C(=O)O)CCCCCCC1)c1cc2c(n(CC3CCCCC3)c1=O)CCCCCC2`, the IC50 on Cannabinoid receptor 2 [1] was found to be 1 nM.

For `O=C(O)CNC(=O)c1cc2c(n(CC3CCCCC3)c1=O)CCCCCC2`, the inhibition constant (Ki) at Cannabinoid receptor 1 [2] is 1060 nM; at Cannabinoid receptor 2 [3], 177 nM.

On to `O=C(NC1(C(=O)O)CCCC1)c1cc2c(n(CC3CCCCC3)c1=O)CCCCCC2`, for which the Ki worked out at 258 nM at Cannabinoid receptor 1 [2] and 56 nM on Cannabinoid receptor 2 [3]. Further, the half-maximal inhibitory concentration (IC50) on Cannabinoid receptor 1 [4] was 113 nM; at Cannabinoid receptor 2 [1], 14 nM.

Take `O=C(NC1(C(=O)O)CCCCC1)c1cc2c(n(CC3CCCCC3)c1=O)CCCCCC2`: the Ki on Cannabinoid receptor 1 [2] is 181 nM; on Cannabinoid receptor 2 [3], 6.7 nM. Moreover, the IC50 at Cannabinoid receptor 1 [4] was 76 nM; at Cannabinoid receptor 2 [1] it was 7 nM. In addition, the Activity result in the series with Mus musculus [5] was “Non-toxic”.

As for `CCCCn1c2c(cc(C(=O)NC3(C(=O)O)CCCCC3)c1=O)CCCCCC2`, the inhibition constant Ki was more than 5000 nM on Cannabinoid receptor 1 [2] and 56 nM on Cannabinoid receptor 2 [3]. Further, the IC50 was more than 2000 nM at Cannabinoid receptor 1 [4] and 7 nM at Cannabinoid receptor 2 [1].

For the molecule `O=C(NC1(C(=O)O)CCCCC1)c1cc2c(n(CC3CCCO3)c1=O)CCCCCC2` (stereo not given), the values for the inhibition constant (Ki) on Cannabinoid receptor 1 [2] and at Cannabinoid receptor 2 [3] were more than 5000 nM and 247 nM, respectively.

As for `CCN1CCCC1Cn1c2c(cc(C(=O)NC3(C(=O)O)CCCCC3)c1=O)CCCCCC2` (stereo not given), at Cannabinoid receptor 2 [3], the Ki was 2110 nM.

In the case of `O=C(NC1(C(=O)O)CCCCC1)c1cc2c(n(Cc3ccc(F)cc3)c1=O)CCCCCC2`, the Ki turned out to be 266 nM on Cannabinoid receptor 1 [2] and 16 nM on Cannabinoid receptor 2 [3]. Further, the half-maximal inhibitory concentration (IC50) at Cannabinoid receptor 1 [4] came to 514 nM; at Cannabinoid receptor 2 [1] it was 9 nM.

For the molecule `N#Cc1ccc(Cn2c3c(cc(C(=O)NC4(C(=O)O)CCCCC4)c2=O)CCCCCC3)cc1`, the results for the inhibitory constant (Ki) on Cannabinoid receptor 1 [2] and on Cannabinoid receptor 2 [3] were 3950 nM and 144 nM, respectively.

In the case of `CCCCn1c(CC)c(C)cc(C(=O)NC2(C(=O)O)CCCCC2)c1=O`, the inhibition constant Ki at Cannabinoid receptor 2 [3] is 348 nM.

As to `CCCCn1c(CCC)c(Br)cc(C(=O)NC2(C(=O)O)CCCCC2)c1=O`, the inhibition constant (Ki) is more than 5000 nM on Cannabinoid receptor 1 [2] and 382 nM on Cannabinoid receptor 2 [3].

For the molecule `CCCc1c(CC)cc(C(=O)NC2(C(=O)O)CCCCC2)c(=O)n1Cc1ccc(F)cc1`, the Ki on Cannabinoid receptor 1 [2] is more than 5000 nM; on Cannabinoid receptor 2 [3], 263 nM.

For the molecule `COCCn1c2c(cc(C(=O)NC3(C(=O)O)CCCCC3)c1=O)CCCCCC2`, the figures for the Ki on Cannabinoid receptor 1 [2] and at Cannabinoid receptor 2 [3] were more than 5000 nM and 294 nM, respectively.

For the molecule `CC(C)(C(=O)O)c1ccc(C(O)CCCN2CCC(C(O)(c3ccccc3)c3ccccc3)CC2)cc1` (stereo not given) [FEXOFENADINE], the inhibition in vivo at 30 mg/kg in the series listed under Mus musculus [6] was determined as 39%.

In the case of `CCc1c(C)cc(C(=O)NC2(C(=O)O)CCCCC2)c(=O)n1Cc1ccc(F)cc1` [S-777469], the inhibition constant Ki at Cannabinoid receptor 1 [2] amounted to 4070 nM. Also, the half-inhibitory concentration (IC50) at Cannabinoid receptor 1 [4] is more than 2000 nM. Further, in the series on Mus musculus [7], the inhibition in vivo at 1 mg/kg is 46%. Besides, in the series on Mus musculus [8], the inhibition in vivo at 3 mg/kg was 48%. The inhibition in vivo at 10 mg/kg with Mus musculus [9] came out at 59%. Besides, the clearance in series [10] was 11.3 mL/min/kg; in series [11], 6 mL/min/kg; in series [12], 13.6 mL/min/kg. In addition, the half-life was 6.2 h in series [13], 12.8 h in [14] and 7.43 h in series [15]. For the same molecule, the Vd in series [16] worked out at 1.9 L/kg; in [17], 1.23 L/kg; in series [18], 0.87 L/kg. In addition, the bioavailability was 37.9% in series [19], 18.7% in series [20] and 9.01% in series [21].

The values above are taken from ChEMBL document CHEMBL2016545, “Discovery of S-777469: an orally available CB2 agonist as an antipruritic agent” (Bioorg Med Chem Lett, 2012).
